Data: article PMC10283505, “CVM-1118 (foslinanib), a 2-phenyl-4-quinolone derivative, promotes apoptosis and inhibits vasculogenic mimicry via targeting TRAP1” (Pathology and Oncology Research, 2023)
Values joined by “and” are separate entries in the source; they are usually repeats but may differ in a detail not shown here. Equal entries are not always repeated.

Key:
[1] = tested on: HT-29 colorectal adenocarcinoma cells; assay: Flow cytometry cell cycle analysis (PI); format: cell-based, human; conditions: 48 h
Description: This assay was conducted by ProQinase GmbH (Freiburg, Germany). HT-29 colorectal adenocarcinoma cells were seeded at 150,000 cells/well in 6-well cell culture plates in 5 mL complete medium and incubated at 37°C overnight. On the day of the assay, CVM-1118 at various concentrations or 0.1% DMSO were added to the cells. After 48 h incubation, cells were harvested including the supernatant, fixed in 80% methanol, and stored at −20°C overnight. The next day, cells were rehydrated in PBS for 30 min and treated with RNAse A (100 μg/mL) and propidium iodide (PI) (25 μg/mL). Cell cycle distribution was analyzed by flow cytometry (FACSCalibur, BD Biosciences), assessing approximately 10,000 events. Detection of DNA intercalated with PI was done by fluorescence detector FL3, in which amplification was set in such a manner that the first amplitude peak of the FL3 signal (FL3-A) in untreated cells (corresponding to the G1 cell population) was found at approximately 200 units. For analysis, events were plotted as histogram. The peak at ∼200 units was defined as cells in G1, events below the G1-peak were considered apoptotic cells (sub-G1), and events at ∼400 units as G2/M cells. All signals in between 200 and 400 units were defined as cells in S-Phase, and those beyond 400 units as endoreduplicated cells (endoR).

[2] = tested on: Notch4 ICD; assay: qPCR analysis of Notch4 expression; format: cell-based, human; conditions: C8161, 10 nM, 8–72 h
Description: For the qPCR analysis of Nodal and Notch expression, total RNA was isolated from cells using the PerfectPure RNA Cell Isolation kit (5Prime) and then reverse-transcribed using 1 μg RNA, RT master mix cocktail and MMLV reverse transcriptase. qPCR was performed on a 7500 Real-Time PCR System (Life Technologies) using manufacturer recommended protocol. TaqMan gene expression human primer/probe sets (Applied Biosystems) utilized were Nodal (Hs00250630_s1) and Notch4 (Hs00270200_m1). Target gene expression was normalized to appropriate house-keeping genes (e.g., RPLP0 or GAPDH). Data was analyzed using Life Technologies Sequence Detection Software.

[3] = tested on: HL-60(TB); assay: NCI 60 cytotoxicity screening; format: cell-based; conditions: Homo sapiens, Leukemia
[4] = tested on: CCRF-CEM; assay: NCI 60 cytotoxicity screening; format: cell-based; conditions: Homo sapiens, Leukemia
[5] = molecular target: T1, TRAP1 (Homo sapiens, UniProt Q12931); assay: In vitro ATPase assay; format: biochemical; conditions: data not shown
T1 sequence (Q12931 60-704): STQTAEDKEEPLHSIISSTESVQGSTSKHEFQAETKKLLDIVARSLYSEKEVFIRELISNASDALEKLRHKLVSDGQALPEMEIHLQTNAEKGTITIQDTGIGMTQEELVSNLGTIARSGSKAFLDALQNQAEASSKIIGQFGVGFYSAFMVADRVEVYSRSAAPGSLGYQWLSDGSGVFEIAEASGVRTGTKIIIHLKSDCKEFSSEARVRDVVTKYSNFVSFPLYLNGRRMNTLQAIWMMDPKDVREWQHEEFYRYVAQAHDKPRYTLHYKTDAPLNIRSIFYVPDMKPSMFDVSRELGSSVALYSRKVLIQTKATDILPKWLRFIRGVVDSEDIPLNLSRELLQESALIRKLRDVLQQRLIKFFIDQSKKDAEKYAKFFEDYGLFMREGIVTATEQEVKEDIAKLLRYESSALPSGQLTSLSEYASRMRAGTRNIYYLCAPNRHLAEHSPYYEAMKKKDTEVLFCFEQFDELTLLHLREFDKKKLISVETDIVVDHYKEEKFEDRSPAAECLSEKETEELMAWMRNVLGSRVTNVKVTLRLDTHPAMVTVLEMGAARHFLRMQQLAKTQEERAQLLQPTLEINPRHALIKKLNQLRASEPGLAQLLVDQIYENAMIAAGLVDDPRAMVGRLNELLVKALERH

[6] = tested on: HOP-62; assay: NCI 60 cytotoxicity screening; format: cell-based; conditions: Homo sapiens; HOP-62, NSCLC
[7] = molecular target: T1, TRAP1; assay: Surface plasmon resonance (Biacore); format: binding; design: purchased Abcam ab123775; conditions: TRAP1, SPR
Description: To confirm the molecular binding of the targeted protein, Surface Plasmon Resonance (SPR) was performed with a Biacore 3000. TRAP1 recombinant protein (Abcam, ab123775) or human Hsp90 recombinant protein (HSP90AB1, Abcam, ab131923) were immobilized on a CM5 sensor chip surface using the amine coupling method according to the manufacturer’s instruction (Biacore, GE Healthcare). CVM-1125 was dissolved in sodium carbonate buffer (pH 9) and then diluted in HBS-EDTA-P20 buffer to desired concentrations (five serial dilutions from 1 × 10^−5 to 1 × 10^−8 M) and injected at flow 30 μL/min with KINJET 60/180 %pos, analyte position, volume, and dissociation time. Specific binding was calculated using BiaEval 3 software.

[8] = tested on: K-562; assay: NCI 60 cytotoxicity screening; format: cell-based; conditions: Homo sapiens, K562; K-562, Leukemia
[9] = tested on: SF-295; assay: NCI 60 cytotoxicity screening; format: cell-based; conditions: Homo sapiens; SF-295, CNS
[10] = tested on: M14; assay: NCI 60 cytotoxicity screening; format: cell-based; conditions: Homo sapiens; M14, Melanoma
[11] = tested on: A498; assay: NCI 60 cytotoxicity screening; format: cell-based; conditions: Homo sapiens; A498, Renal
[12] = tested on: RXF 393; assay: NCI 60 cytotoxicity screening; format: cell-based; conditions: Homo sapiens; RXF 393, Renal
[13] = tested on: SNB-19; assay: NCI 60 cytotoxicity screening; format: cell-based; conditions: Homo sapiens; SNB-19, CNS
[14] = tested on: EKVX; assay: NCI 60 cytotoxicity screening; format: cell-based; conditions: Homo sapiens, NSCLC
[15] = tested on: T-47D; assay: NCI 60 cytotoxicity screening; format: cell-based; conditions: Homo sapiens, T47D, Breast

With `COc1ccc2[nH]c(-c3cccc(F)c3)cc(=O)c2c1OP(=O)(O)O` [CVM-1118] the “Cell cycle profile, EndoR” value ([1]; HT-29, 10 nM) was 1.28%, the “Cell cycle profile, G1 phase” value ([1]; HT-29, 10 nM) was 49.34% and the “Cell cycle profile, G2/M phase” value ([1]; HT-29, 10 nM) was 25.66%. The “Cell cycle profile, S phase” value ([1]; HT-29, 10 nM) was 23.02%, the “Cell cycle profile, Sub-G1” value ([1]; HT-29, 10 nM) was 1.24% and the “Cell cycle profile, EndoR” value ([1]; HT-29, 30 nM) was 1.23%. The “Cell cycle profile, G1 phase” value ([1]; HT-29, 30 nM) was 50.63%, the “Cell cycle profile, G2/M phase” value ([1]; HT-29, 30 nM) was 23.71% and the “Cell cycle profile, S phase” value ([1]; HT-29, 30 nM) was 23.30%. The “Cell cycle profile, Sub-G1” value ([1]; HT-29, 30 nM) was 1.44%, the “Cell cycle profile, EndoR” value ([1]; HT-29, 100 nM) was 2.84% and the “Cell cycle profile, G1 phase” value ([1]; HT-29, 100 nM) was 16.27%. The “Cell cycle profile, G2/M phase” value ([1]; HT-29, 100 nM) was 43.42%, the “Cell cycle profile, S phase” value ([1]; HT-29, 100 nM) was 10.90% and the “Cell cycle profile, Sub-G1” value ([1]; HT-29, 100 nM) was 26.96%. For the same compound, the “Cell cycle profile, EndoR” value ([1]; HT-29, 300 nM) was 2.45%, the “Cell cycle profile, G1 phase” value ([1]; HT-29, 300 nM) was 1.58% and the “Cell cycle profile, G2/M phase” value ([1]; HT-29, 300 nM) was 50.77%. For the same compound, the “Cell cycle profile, S phase” value ([1]; HT-29, 300 nM) was 23.63%, the “Cell cycle profile, Sub-G1” value ([1]; HT-29, 300 nM) was 22.46% and the “expression of Notch4 ICD (mRNA)” value [2] was “decreased”.

With `COc1ccc2[nH]c(-c3cccc(F)c3)cc(=O)c2c1O` [CVM-1125] the GI50 [3] was 22.2 nM, the GI50 [4] was 34.8 nM and the “influence on the ATPase activity of TRAP1” value [5] was “no influence”. The GI50 [6] was 49.6 nM, the kon ([7]; read-out: Association (ka)) was 30200 M⁻¹ s⁻¹ and the Kd ([7]; read-out: KD (kd/ka)) was 67 nM and 66.8 nM. The GI50 [8] was 24.1 nM, the GI50 [9] was 25.5 nM and the GI50 [10] was 18.9 nM. For the same compound, the GI50 [11] was 24.8 nM, the GI50 [12] was 17.5 nM and the GI50 [13] was 28.8 nM. It also gave a GI50 [14] of 46.1 nM and a GI50 [15] of 28 nM.
